Values after ≈ are worked out from the molar mass of the structure shown. Where a SMILES comes first, the peptide text is derived from it. [ ]: non-standard residue; d: D form. N(tridecyl)Gly = CCCCCCCCCCCCCNCC(=O)O; Gly(N-2-aminoethyl) = NCCNCC(=O)O; Gly(N-cHex) = O=C(O)CNC1CCCCC1; Nlys = NCCCCNCC(=O)O
Key:
[1] = tested on: C. neoformans
[2] = tested on: HPL1A lung cells; assay: in vitro; type: cell-based, human
Description: (§1) Hepatocellular carcinoma (HepG2), mouse fibroblast (3T3), human lung (HPL1A), and human keratinocyte (HaCat) cells were cultured in Dulbecco modified eagle media (DMEM) containing 10% fetal bovine serum (FBS) and 1% penicillin, streptomycin, and glutamine (PSG) at 37° C. and 5% CO2. Cells were collected and adjusted to […] to 4×10^5 cells/mL in phenol-red free DMEM and plated (100 μL) 96 well plates. 2-fold serial dilutions of 10× peptoid (11.1 μL) were added to each well in triplicate. Water (vehicle) was used as a negative control. Plates were incubated at 37° C. in 5% CO2 for 72 hours. Thiazolyl blue tetrazolium bromide (MTT) was added to each well (5 mg/mL; 20 μL) and incubated for 3 hours. Media was removed, DMSO (100 μL) was added, and plates were incubated at 37° C. for 10 minutes. Plates were read on a SpectraMax M5 plate reader (Abs. 570 nm). The concentration of compound resulting in a 50% reduction in growth compared to control (toxicity dose 50%; TD50) was determined using GraFit. This procedure was repeated three times on separate days.

[3] = tested on: HaCat keratinocyte cells; assay: in vitro; type: cell-based, human
Description: as §1

[4] = in vitro; type: cell-based, human; settings: human
Description: as §1

[5] = tested on: C. neoformans; assay: microbe, parasite or virus in culture; type: cell-based, Cryptococcus neoformans; settings: 72 h
Description: Cell solution was diluted into RPMI-MOPS (1:100) followed by another dilution into RPMI-MOPS (1:20). […] Plates were incubated for 72 hours at 35° C. MIC was determined as the lowest concentration of individual compound or combined compounds inhibiting pathogen growth. Fractional inhibitory concentration index (FICi) was determine using the following equation: FICi values were interpreted as follows: FICi<0.5 synergistic; 0.5≤FICi≤4 indifferent; FICi>4 antagonist (Johnson et al., Antimicrob. Agents Chemother. 48, 693-715 (2004)).

[6] = tested on: C. albicans biofilm; type: cell-based, Candida albicans; settings: 24 h
Description: Plates were incubated overnight at 37° C. Media was gently removed and gently washed three times with PBS. RPMI-MOPS (198 μL) were added to each well. 2-fold serial dilutions of 100× peptoid solutions were prepared in water and 2 μL of peptoid were added to each well in triplicate then incubated at 37° C. for 24 hours. PrestoBlue (20 μL) was added to each well and incubated at 37° C. for one hour before measuring fluorescence on a SpectraMax M5 plate reader (Ex. 555 nm; Em. 585 nm).

[7] = tested on: HepG2 hepatocellular carcinoma cells; assay: Mammalian cytotoxicity, MTT, HepG2; type: cell-based, human
Method in brief: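 HepG2 cells (1×10^5 cells/mL, phenol-red-free DMEM, 10% FBS) were exposed to 2-fold dilutions of compound at 1.56–200 μg/mL final, in triplicate, for 72 h at 37 °C, 5% CO2. MTT was added for 3 h and, after DMSO solubilization, absorbance was read at 570 nm. TD50 is the concentration giving a 50% growth reduction versus the water vehicle, reported as the mean of biological replicates ± SD.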

[8] = tested on: C. albicans; type: cell-based, Candida albicans; settings: 24 h
Description: 2-fold serial dilutions of 100× peptoid solutions were prepared in water and 2 μL of peptoid were added to each well in triplicate. […] MIC was defined as the lowest concentration of compound preventing fungal growth. This assay was repeated 3 times on separate days with each compound.

[9] = tested on: 3T3 fibroblasts; assay: in vitro; type: cell-based, mouse
Description: as §1

[10] = in vitro; type: cell-based, mouse; settings: mouse, 3T3 fibroblasts
Description: as §1

[11] = tested on: HepG2 hepatocellular carcinoma cells; settings: RMG8-8, previously published results (Green et al. 2021); cited from earlier work

SMILES: CCCCCCCCCCCCCNCC(=O)N(CC(=O)N(CCCCN)CC(=O)N(CCN)CC(=O)N(CC(N)=O)C1CCCCC1)C1CCCCC1 [RMG8-8, Ntri-Ncha-Nlys-Nae-Ncha] (H-[N(tridecyl)Gly][Gly(N-cHex)][Nlys][Gly(N-2-aminoethyl)][Gly(N-cHex)]-NH2)
- MIC C. neoformans after incubation with human serum [1]: 3.13 µg/mL
- MIC C. neoformans, stock not incubated with human serum [1]: 1.56 µg/mL
- proteolytic degradation / protein binding in human serum: No proteolytic degradation or significant protein binding
- TD50 HPL1A [2]: 74 µg/mL
- TD50 HaCat [3]: 54 µg/mL
- CC50 at 72 h ([4]; HPL1A lung cells): 74 ± 8 µg/mL (≈ 97 µM)
- CC50 at 72 h ([4]; HaCat keratinocyte cells): 54 ± 10 µg/mL (≈ 70.8 µM)
- MIC (compound alone) [5]: 1.56 µg/mL
- MIC C. albicans biofilm (MBIC) [6]: 100 µg/mL (≈ 131 µM)
- TD50 HepG2 [7]: 189 µg/mL
- MIC C. albicans [8]: 25 µg/mL (≈ 32.8 µM)
- TD50 3T3 [9]: 59 µg/mL
- CC50 at 72 h [10]: 59 ± 15 µg/mL (≈ 77.3 µM)
- HepG2 TD50 [11]: 189 ± 43 µg/mL

Source: patent US20240352066A1, “ANTIMICROBIAL COMPOUNDS AND THE METHOD OF USE” (priority 2021, published 2024)
